pKi: −log10 of the molar value. Where a name gives a salt, the structure may show the parent alone. Read-outs that look alike come from different tables or passages of the source.
Columns and labels:
5-HT1A receptor = conditions: background literature; cited from earlier work
[1] = molecular target: T1, 5-HT1A serotonin receptor subtype (Rattus norvegicus, UniProt P19327); experiment: 5-HT1A receptor binding, displacement of 3H-8-OH DPAT (procedure of Hall et al.); conditions: for inhibition at 0.1 µM: read-out: Affinity for 5-HT1A Receptor Sites, % Inhibition at 100 nM; for pKi: Ki calculated from IC50 values, read-out: Affinity for 5-HT1A Receptor Sites, Ki
T1 construct: from tissue
T1 sequence (P19327 1-422): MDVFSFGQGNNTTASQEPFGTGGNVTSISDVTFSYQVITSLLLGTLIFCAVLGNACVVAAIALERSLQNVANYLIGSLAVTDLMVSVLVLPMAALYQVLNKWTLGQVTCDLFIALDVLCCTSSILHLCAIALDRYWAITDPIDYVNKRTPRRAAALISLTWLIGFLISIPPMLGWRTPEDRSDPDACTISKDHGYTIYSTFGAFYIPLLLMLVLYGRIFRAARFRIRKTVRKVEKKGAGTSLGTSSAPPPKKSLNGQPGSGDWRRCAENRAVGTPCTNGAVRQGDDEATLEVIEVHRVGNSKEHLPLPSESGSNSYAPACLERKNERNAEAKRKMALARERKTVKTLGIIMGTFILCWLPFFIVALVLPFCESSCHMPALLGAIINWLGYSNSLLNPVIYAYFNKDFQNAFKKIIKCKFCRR
From the text: The serotoninergic properties of the compounds of this invention were established by the procedure of Hall et al., J. Neurochem.

D2 receptor = molecular target: T2, D2 receptor (Rattus norvegicus, UniProt P61169); experiment: D2 receptor affinity, reduction of 3H-spiroperidol binding; conditions: read-out: Affinity for D2 Receptor Sites, % Inhibition at 1 μM
T2 construct: from tissue
T2 sequence (P61169 whole entry): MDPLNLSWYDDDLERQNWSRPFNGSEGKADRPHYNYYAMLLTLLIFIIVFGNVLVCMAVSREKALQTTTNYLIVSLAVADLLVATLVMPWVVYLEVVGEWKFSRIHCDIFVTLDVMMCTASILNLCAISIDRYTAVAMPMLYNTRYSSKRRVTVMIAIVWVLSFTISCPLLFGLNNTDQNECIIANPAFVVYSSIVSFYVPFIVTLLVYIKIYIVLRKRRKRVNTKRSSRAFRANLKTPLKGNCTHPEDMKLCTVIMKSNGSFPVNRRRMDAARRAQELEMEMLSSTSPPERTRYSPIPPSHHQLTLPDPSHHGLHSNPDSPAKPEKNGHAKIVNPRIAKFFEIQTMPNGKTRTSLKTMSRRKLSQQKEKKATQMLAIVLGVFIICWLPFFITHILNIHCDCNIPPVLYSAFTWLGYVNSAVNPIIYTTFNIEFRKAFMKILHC
Protocol: The percentage reduction of ^3 H-spiroperidol binding at 1 μM concentration of test compound is reported, infra.

[2] = background, U.S. Pat. No. 4,818,756; cited from earlier work
[3] = 100 nM test compound, 3H-8-OH DPAT
[4] = 1 μM test compound, 3H-spiroperidol

| SMILES | binding at the 5-HT1A site (in words) (5-HT1A receptor) | inhibition at 0.1 µM [1, 3] [%] | further results |
| --- | --- | --- | --- |
| CCCC(C)C1(CC)C(=O)NC(=O)NC1=O (centres unmarked) [pentobarbital] | do not act via the 5-HT1A receptor |  |  |
| COc1ccccc1N1CCN(CCCN2CC3CC4CC(C3)CC2C4)CC1 [Example 4, 4-[3-[4-(2-Methoxyphenyl)-1-piperazinyl]propyl]-4-azatricyclo[4.3.1.1(3,8)]undecane Trihydrochloride One Quarter Hydrate] |  | 72 | pKi ([1]; 3H-8-OH DPAT): 7.48; inhibition at 1 µM (D2 receptor; [4]): 14% |
| O=C1c2ccccc2S(=O)(=O)N1CCCCN1CCN(c2ncccn2)CC1 [TVX Q 7821, 2-[4-[4-(2-pyrimidinyl)-1-piperazinyl]buyl]-1,2-benzisothiazol-3-(2H)one-1,1-dioxide hydrochloride] | demonstrate binding at the 5-HT1A site |  | antidepressant activity (in words) [2]: found to possess antidepressant activity |
| COc1ccccc1N1CCN(CCC(=O)N2CC3CC4CC(C3)CC2C4)CC1 [Example 3, 1-(4-Azatricyclo[4.3.1.1(3,8)]undec-4-yl)-3-[4-(2-methoxyphenyl)-1-piperazinyl]-1-propanone Dihydrochloride Hydrate] |  |  | inhibition at 0.1 µM [1]: 92%; inhibition at 1 µM (D2 receptor): 71% |
| Clc1cccc(N2CCN(CCCN3CC4CC5CC(C4)CC3C5)CC2)c1 [Example 2, 4-[3-[4-(3-Chlorophenyl)-1-piperazinyl]propyl]-4-azatricyclo[4.3.1.1(3,8)]undecane Dihydrochloride One Third Hydrate] |  | 47 |  |
| O=C(CCN1CCN(c2cccc(Cl)c2)CC1)N1CC2CC3CC(C2)CC1C3 [Example 1, 1-(4-Azatricyclo[4.3.1.1(3,8)]undec-4-yl)-3-[4-(3-chlorophenyl)-1-piperazinyl]-1-propanone] |  | 78 | pKi ([1]; 3H-8-OH DPAT): 7.52; inhibition at 1 µM (D2 receptor; [4]): 42% |
| O=C1CC2(CCCC2)CC(=O)N1CCCCN1CCN(c2ncccn2)CC1 [Buspirone, 8-[4-[-4-(2-pyrimidinyl)-1-piperazinyl]butyl]-8-azaspiro[4.5]decane-7,9-dione] | demonstrate binding at the 5-HT1A site |  |  |
| O=C(CCN1CCN(c2ncccn2)CC1)N1CC2CC3CC(C2)CC1C3 [Example 5, 1-(4-Azatricyclo[4.3.1.1(3,8)]undec-4-yl)-3-[4-(2-pyrimidinyl)-1-piperazinyl]-1-propanone] |  | 46 |  |
